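Grown in 96-well plates, cells were treated for 48 hours with each compound at five concentrations. Insufficient inhibition: endpoint recorded as highest concentration tested. The concentration for 50% growth inhibition is given as GI50.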 Calls of active or inactive are those of the source. No stated cut-off is given here; in the data, active = GI50 up to about 1.1 µM and inactive = higher.
Key:
Test in all cases: NCI tumour cell line growth inhibition, 48 h
KM-20L2 = system: KM-20L2
HOP-18 = system: HOP-18
DMS-273 = system: DMS-273
LXFL 529 = system: LXFL 529
XF498 = system: XF498
DMS-114 = system: DMS-114
DLD-1 = system: DLD-1
SNB-78 = system: SNB-78
RXF 631 = system: RXF 631

Structure (SMILES) | GI50 (KM-20L2) | GI50 (HOP-18) | GI50 (DMS-273) | GI50 (LXFL 529) | GI50 (XF498) | GI50 (DMS-114) | GI50 (DLD-1) | GI50 (SNB-78) | GI50 (RXF 631)
O=C(O/N=C1/CCCC/C1=C\c1ccccc1)c1ccccc1 | > 100 µM (inactive) | > 100 µM (inactive) | 40.3 µM (inactive) | 28.4 µM (inactive) | > 100 µM (inactive) | 17.1 µM (inactive) | 30.5 µM (inactive) |  | 
Nc1nc(SCCC/C=C/B(O)O)nc2c1ncn2C1OC(COP(=O)(O)O)C(O)C1O (centres undefined) | > 203 µM (inactive) | > 203 µM (inactive) | > 203 µM (inactive) |  | > 203 µM (inactive) | > 203 µM (inactive) | > 203 µM (inactive) | > 203 µM (inactive) | 
C=CCc1cc(OC)c(O)c(C(=O)/C=C/c2ccc(OC)c(OC)c2)c1 | > 10 µM (inactive) |  | 23.4 µM (inactive) | 20.9 µM (inactive) | 14.1 µM (inactive) | 17.8 µM (inactive) | 18.4 µM (inactive) | 28.8 µM (inactive) | 25.4 µM (inactive)
C/C(=N\NS(=O)(=O)c1ccccc1)c1ccc[n+]([O-])n1 | > 100 µM (inactive) | > 100 µM (inactive) | > 100 µM (inactive) | 37.8 µM (inactive) |  | 97.3 µM (inactive) | 44.9 µM (inactive) | 63.7 µM (inactive) | > 100 µM (inactive)
CCCCCCCCCCCCCCCC(=O)NC1CCc2cc(O)c(O)c(O)c2-c2ccc(SC)c(=O)cc21 (centres undefined) | 15.7 µM (inactive) |  | 4.16 µM (inactive) | 1.44 µM (inactive) | 7.26 µM (inactive) | 1.94 µM (inactive) | 7.94 µM (inactive) | 8.55 µM (inactive) | 13.2 µM (inactive)
CCOC(=O)C1C(c2ccc(Br)cc2)N(Cc2ccccc2)C(c2ccc(Br)cc2)C(C(=O)OC)S1(=O)=O (centres undefined) | > 100 µM (inactive) | 21.9 µM (inactive) | 74.1 µM (inactive) | > 100 µM (inactive) | > 100 µM (inactive) | 66.4 µM (inactive) | > 100 µM (inactive) | > 100 µM (inactive) | 
Clc1c(Cl)c2c(Cl)c(Cl)c1C[PH](c1ccccc1)(c1ccccc1)CC[PH](c1ccccc1)(c1ccccc1)Cc1c(Cl)c(Cl)c(c(Cl)c1Cl)C[PH](c1ccccc1)(c1ccccc1)CC[PH](c1ccccc1)(c1ccccc1)C2 | 2.65 µM (inactive) | 8.17 µM (inactive) | 2.42 µM (inactive) | 2.15 µM (inactive) |  | 1.68 µM (inactive) | 2.37 µM (inactive) | 3.82 µM (inactive) | 6.68 µM (inactive)
O=C1NC(=O)C(=Cc2c3ccccc3cc3ccccc23)C(=O)N1 | > 100 µM (inactive) | 83.8 µM (inactive) | > 100 µM (inactive) | 79.4 µM (inactive) | > 100 µM (inactive) |  |  |  | > 100 µM (inactive)
Cc1ccc(C(=O)C#Cc2cnc(O)nc2O)cc1 |  | 18.6 µM (inactive) | 16.1 µM (inactive) |  |  |  | 10.3 µM (inactive) | 11.9 µM (inactive) | 
COc1c(OC(C)=O)c(OC(C)=O)cc2c1-c1ccc(OC)c(=O)cc1C(NC(C)=O)CC2 (centres undefined) | 0.0222 µM (active) |  | 0.0172 µM (active) | < 0.01 µM (active) | 0.0311 µM (active) | < 0.0127 µM (active) | 0.0186 µM (active) | < 0.01 µM (active) | 0.0676 µM (active)
Cc1c2ccnc(C(N)=O)c2c(C)c2c1[nH]c1ccccc12 | 6.62 µM (inactive) | 9.48 µM (inactive) | 2.39 µM (inactive) | 5.69 µM (inactive) | 8.24 µM (inactive) | 8.91 µM (inactive) | 5.07 µM (inactive) | 14 µM (inactive) | 4.58 µM (inactive)
CCOC(=O)/C=C(/CN1C(=O)c2ccccc2C1=O)c1ccccc1 | > 100 µM (inactive) | > 100 µM (inactive) | > 100 µM (inactive) | > 100 µM (inactive) | > 100 µM (inactive) | > 100 µM (inactive) | > 100 µM (inactive) | 88.9 µM (inactive) | 
